Assay results taken from paper PMC3748599 (Environmental science & technology, 2013).
Like-named read-outs stand apart in the source and are kept apart here.

What was measured:
CYP3A = conditions: liver microsomes of pretreated male rats; cited from earlier work
CYP2B = conditions: liver microsomes of pretreated male rats; cited from earlier work
CYP1A = conditions: liver microsomes of pretreated male rats; cited from earlier work
rat liver microsomes [1] = assay: Enantioselective analysis; format: in vitro ADME; conditions: for enantiomeric fraction (EF) of metabolite, range: range over microsomal preparations; for enantiomeric enrichment of the parent compound: racemic substrate
rat liver microsomes [2] = conditions: for HEPOXB formed (% of the HEPTA added): substrate HEPTA; for parent compound detected at end of incubation (% of initial amount): 30 min
[3] = cited from earlier work
[4] = microsomes from DX-pretreated rats
[5] = microsomes from PB-pretreated rats
[6] = microsomes from VH-pretreated rats
[7] = formed from cis- and trans-chlordane
[8] = substrate racemic C-CHLORD, microsomes from PB-pretreated rats
[9] = microsomes from DX- and VH-pretreated rats

CCC1(c2ccccc2)C(=O)NC(=O)NC1=O [PB, phenobarbital]
CYP3A activity relative to microsomes from VH-pretreated animals (CYP3A): 2 times
CYP2B activity relative to microsomes from VH-pretreated animals (CYP2B): 96 times
CYP1A activity relative to microsomes from VH-pretreated animals (CYP1A): 4 times

ClC1=C(Cl)[C@]2(Cl)[C@@H]3[C@@H](Cl)[C@H]4O[C@H]4[C@@H]3[C@@]1(Cl)C2(Cl)Cl (single isomer, unassigned; isomer b) [HEPOXB, heptachlor epoxide isomer B]
enantiomeric fraction (EF) of metabolite, range (rat liver microsomes [1]; formed from heptachlor): 0.44-0.54
enantiomeric enrichment of metabolite (rat liver microsomes [1]; substrate racemic HEPTA, microsomes from DX-pretreated rats): enrichment of (-)-HEPOXB
enantiomeric enrichment of metabolite (rat liver microsomes [1]; substrate racemic HEPTA, microsomes from PB-pretreated rats): slight but significant enrichment of (+)-HEPOXB
enantiomeric enrichment of metabolite (rat liver microsomes [1]; substrate racemic HEPTA, microsomes from VH-pretreated rats): enrichment of (-)-HEPOXB
HEPOXB formed (% of the HEPTA added) (rat liver microsomes [2]; [4]): 47%
HEPOXB formed (% of the HEPTA added) (rat liver microsomes [2]; [5]): 82%
HEPOXB formed (% of the HEPTA added) (rat liver microsomes [2]; [6]): 33%

ClC1=C(Cl)[C@]2(Cl)[C@H]3[C@H]([C@H](Cl)[C@]4(Cl)O[C@H]34)[C@@]1(Cl)C2(Cl)Cl [OXY, oxychlordane]
enantiomeric enrichment in vivo ([3]; female rats treated for 28 days with trans-nonachlor or T-CHLORD): enrichment of (+)-OXY
enantiomeric enrichment in vivo ([3]; male rats, all time-points investigated): (-)-OXY was enriched
enantiomeric fraction (EF) of metabolite, range (rat liver microsomes [1]; [7]): 0.45-0.89
enantiomeric enrichment of metabolite (rat liver microsomes [1]; [8]): (+)-OXY was enriched
enantiomeric enrichment of metabolite (rat liver microsomes [1]; substrate racemic T-CHLORD, microsomes from DX-pretreated rats): (-)-OXY was slightly enriched
enantiomeric enrichment of metabolite (rat liver microsomes [1]; substrate racemic T-CHLORD, microsomes from PB-pretreated rats): Enrichment of (+)-OXY
OXY formed (% of the total C-CHLORD added) (rat liver microsomes [2]; substrate C-CHLORD, microsomes from PB-pretreated rats): approximately 2%
OXY levels formed, PB versus DX microsomes (rat liver microsomes [2]; substrate T-CHLORD, PB- versus DX-pretreated rats): 9 times

ClC1=C(Cl)C2(Cl)[C@H]3C[C@H](Cl)[C@H](Cl)[C@H]3C1(Cl)C2(Cl)Cl (stereo partly drawn) [C-CHLORD, cis-Chlordane]
enantiomeric enrichment of the parent compound (rat liver microsomes [1]; [4]): did not reach statistical significance
enantiomeric enrichment of the parent compound (rat liver microsomes [1]; [5]): (-)-C-CHLORD was only modestly enriched
enantiomeric enrichment of the parent compound (rat liver microsomes [1]; [6]): (-)-C-CHLORD was only modestly enriched
change of parent compound levels in incubation (rat liver microsomes [2]; [9]): no statistically significant change
change of parent compound levels in incubation (rat liver microsomes [2]; [5]): clearly decreased

ClC1=CC2C(C1Cl)C1(Cl)C(Cl)=C(Cl)C2(Cl)C1(Cl)Cl (stereo not drawn) [DCC, 1,2-dichlorochlordene]
enantiomeric fraction (EF) of metabolite, range (rat liver microsomes [1]; [7]): 0.42-0.90
enantiomeric enrichment of metabolite (rat liver microsomes [1]; substrate racemic C-CHLORD, microsomes from DX-pretreated rats): clear enrichment of E1-DCC
enantiomeric enrichment of metabolite (rat liver microsomes [1]; [8]): enrichment of E2-DCC
enantiomeric enrichment of metabolite (rat liver microsomes [1]; substrate racemic C-CHLORD, microsomes from VH-pretreated rats): clear enrichment of E1-DCC

ClC1=C(Cl)C2(Cl)C3C(Cl)C=CC3C1(Cl)C2(Cl)Cl (stereo not drawn) [HEPTA, Heptachlor]
formation as metabolite from both chlordane isomers (rat liver microsomes [2]; microsomal incubations with T-CHLORD and C-CHLORD): not detected
change of parent compound levels in incubation (rat liver microsomes [2]; [9]): significant decrease
change of parent compound levels in incubation (rat liver microsomes [2]; [5]): significant decrease
parent compound detected at end of incubation (% of initial amount) (rat liver microsomes [2]; [5]): 6%

ClC1=C(Cl)[C@]2(Cl)[C@H]3[C@H](Cl)[C@@H](Cl)C[C@H]3[C@@]1(Cl)C2(Cl)Cl (relative stereo) [T-CHLORD, trans-chlordane]
enantiomeric enrichment in tissues ([3]; rats treated with T-CHLORD): (-)-T-CHLORD is enriched
enantiomeric enrichment of the parent compound (rat liver microsomes [1]; [4]): slight enrichment of (-)-T-CHLORD
enantiomeric enrichment of the parent compound (rat liver microsomes [1]; [5]): (-)-T-CHLORD was highly enriched
enantiomeric enrichment of the parent compound (rat liver microsomes [1]; [6]): No enantiomeric enrichment
parent compound detected at end of incubation (% of initial amount) (rat liver microsomes [2]; [4]): 80%
parent compound detected at end of incubation (% of initial amount) (rat liver microsomes [2]; [5]): 32%
parent compound detected at end of incubation (% of initial amount) (rat liver microsomes [2]; [6]): 94%

ClC1=C(Cl)[C@]2(Cl)[C@@H]3[C@@H](Cl)[C@@H]4O[C@@H]4[C@@H]3[C@@]1(Cl)C2(Cl)Cl (single isomer, unassigned; isomer a) [HEPOXA, heptachlor epoxide isomer A]
formation as metabolite from HEPTA (rat liver microsomes [2]; all three rat liver microsomal preparations): not to HEPOXA
